Laboratory results reported in patent US4315009A, “Antisecretory guanidine derivatives and pharmaceutical compositions containing them” (Imperial Chemical Industries Limited, priority 1978, dated 1982).

Test: overt toxicity in mice after intraperitoneal dosing
Format: in vivo
Conditions: intraperitoneally, 50 mg./kg.

## C/N=C(\NC#N)Nc1cccc(-c2csc(N=C(N)N)n2)c1 [Example 2, 2-guanidino-4-[3-(2-cyano-3-methylguanidino)phenyl]thiazole]
  overt toxicity: no overt toxicity
